Measurements as given in US20240150293A1, “SPIROCYCLOHEXANE DERIVATIVES, PHARMACEUTICAL COMPOSITIONS CONTAINING THEM AND THEIR USES AS ANTI-APOPTOTIC INHIBITORS” (LES LABORATOIRES SERVIER, priority 2021, published 2024).
Like-named read-outs stand apart in the source and are kept apart here.

Tests used:
[1] = molecular target: Cy5-labelled Mcl1 (amino acids 171-321) C286S protein (UniProtKB Q07820) (Homo sapiens (Human), UniProt Q07820, C286S); experiment: Inhibition of Mcl-1 by the fluorescence quenching assay (Example A, Method B); format: binding; settings: for inhibition at 1 µM: read-out: Mcl-1 inhibition, % at a single concentration
Chain of Cy5-labelled Mcl1 (amino acids 171-321) C286S protein (Q07820 171-321 C286S): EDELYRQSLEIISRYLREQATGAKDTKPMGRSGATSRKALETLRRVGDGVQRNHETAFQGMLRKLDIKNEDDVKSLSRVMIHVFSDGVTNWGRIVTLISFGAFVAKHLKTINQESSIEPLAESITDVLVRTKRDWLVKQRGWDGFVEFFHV
Outline: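 Eleven-point compound series incubated 2 h at room temperature with 1 nM Cy5-tagged protein and quencher-labelled PUMA peptide at 10, 20 or 400 nM in HEPES/NaCl/Tween 20, pH 7.4, 5% DMSO. IC50 for 50% fluorescence increase by 4-parameter fit, then Ki derived (complete cKi or estimated eKi).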

[2] = tested on: NCI-H929 cell lines; experiment: In vitro cytotoxicity, CellTiter-Glo (CTG) assay (Example B, Method B); format: cell-based; settings: NCI-H929 cells, 48 h incubation, read-out: C50
Outline: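 ATP-based luminescence (CellTiter-Glo) after 48 h incubation at 37° C., 5% CO2 gave NCI-H929 viability. Eleven concentrations tested, highest final 30 μM, dispensed acoustically from 10 mM DMSO stocks; C50 defined as concentration reaching 50% viability.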

[3] = tested on: AMO-1 multiple myeloma xenograft; experiment: Quantification of the cleaved form of PARP in vivo, per os (Example C); design: species or system SCID mice; settings: single dose per os, tumors recovered 16 hours after dosing
Experimental: The ability of the compounds of the invention to induce apoptosis was evaluated in vivo using the AMO-1 multiple myeloma xenograft.
1×10^7 cells were subcutaneously grafted into immunosuppressed SCID mice. 12-14 days later, when tumors had reached the appropriate volume, mice (3 per group) were treated once with the various compounds (per os, HEC 1%/Tween 80 99:1). Tumor samples were recovered 16 hours after dosing and lysed. Cleared lysates were used for cleaved PARP quantification (as a marker of apoptosis induction) using the Meso Scale Discovery (MSD) Elisa platform test. Results are expressed as the ratio between cleaved PARP in treated mice over control mice.

[4] = tested on: AMO-1 multiple myeloma xenografts; experiment: Anti-tumor activity in vivo (Example D); design: species or system SCID mice
Experimental: The anti-tumor activity of the compounds of the invention was evaluated using AMO-1 multiple myeloma xenografts.
1×10^7 cells were subcutaneously grafted into immunosuppressed SCID mice. 7-10 days later, when the tumor mass had reached an average volume of about 150 mm^3, mice were treated with the various compounds once a week for 2 weeks (per os, HEC 1%/Tween 80 99:1). Tumor size was measured three times per week using electronic calipers.
At the end of the treatment cycle (d9), tumor growth inhibition (TGI) was calculated using the formula: […]
wherein DTV (Delta Tumor Volume) at Dx was calculated as follows: […]
(Tumor Volume at Dx)−(Tumor Volume at Randomization).

[5] = 30 mpk per os once a week for 2 weeks
[6] = 60 mpk per os once a week for 2 weeks

| SMILES | Ki [1] [nM] | IC50 ([2]; Homo sapiens, NCI-H929, 48 h) [nM] | also measured |
| --- | --- | --- | --- |
| C[C@@H](COc1ccnc2c1[C@H](C)CCC2)C[C@H]1Cc2cc(F)ccc2[C@]12CC[C@@](Nc1cccc(Cl)c1)(C(=O)O)CC2 [Example 768, (1r,2′S,4S)-4-(3-chloroanilino)-5′-fluoro-2′-[(2R)-2-methyl-3-{[(5R)-5-methyl-5,6,7,8-tetrahydroquinolin-4-yl]oxy}propyl]-2′,3′-dihydrospiro[cyclohexane-1,1′-indene]-4-carboxylic acid] | 0.109 | 49.6 | Cleaved PARP (fold to control) ([3]; 30 mpk): 0.8 fold to control; Cleaved PARP (fold to control) ([3]; 60 mpk): 15.4 fold to control; Cleaved PARP (fold to control) ([3]; 120 mpk): 30.3 fold to control |
| C[C@@H](COc1ccnc2c1[C@H](C)CCC2)CN1Cc2cc(F)ccc2[C@]12CC[C@@](Nc1cccc(Cl)c1)(C(=O)O)CC2 [Example 41, (1s,4S)-4-(3-chloroanilino)-5′-fluoro-2′-[(2R)-2-methyl-3-{[(5R)-5-methyl-5,6,7,8-tetrahydroquinolin-4-yl]oxy}propyl]-2′,3′-dihydrospiro[cyclohexane-1,1′-isoindole]-4-carboxylic acid] | – | 115 | Ki ([1]; Ki determined from IC50): 0.355 nM; % TGI (d9) [4, 5]: 1%; % TGI (d9) [4, 6]: 7.4%; % TGI (d9) ([4]; 120 mpk per os once a week for 2 weeks): 66.8% |
| CC(C)Oc1ccc2c(c1)[C@]1(CC[C@@](Nc3cccc(Cl)c3)(C(=O)O)CC1)[C@@H](C[C@@H](C)COc1ccnc3c1[C@H](C)CCC3)C2 [Example 786, (1r,2′S,4S)-4-(3-chloroanilino)-2′-[(2R)-2-methyl-3-{[(5R)-5-methyl-5,6,7,8-tetrahydroquinolin-4-yl]oxy}propyl]-6′-[(propan-2-yl)oxy]-2′,3′-dihydrospiro[cyclohexane-1,1′-indene]-4-carboxylic acid] | 0.0803 | 77.2 | % TGI (d9) [4, 5]: 43.2%; % TGI (d9) [4, 6]: 98.9% |
| Cc1c(Cl)cccc1N[C@]1(C(=O)O)CC[C@]2(CC1)c1ccccc1C[C@@H]2C[C@@H](C)COc1ccnc2c1[C@H](C)CCC2 [Example 708, (1r,2′S,4S)-4-(3-chloro-2-methylanilino)-2′-[(2R)-2-methyl-3-{[(5R)-5-methyl-5,6,7,8-tetrahydroquinolin-4-yl]oxy}propyl]-2′,3′-dihydrospiro[cyclohexane-1,1′-indene]-4-carboxylic acid] | 0.362 | 107 | Cleaved PARP (fold to control) ([3]; 120 mpk): 12.6 fold to control |
| COC(C)(C)c1ccc2c(c1)[C@]1(CC[C@@](Nc3cccc(Cl)c3)(C(=O)O)CC1)[C@@H](C[C@@H](C)COc1ccnc3c1[C@H](C)CCC3)C2 [Example 866, (1r,2′S,4S)-4-(3-chloroanilino)-6′-(2-methoxypropan-2-yl)-2′-[(2R)-2-methyl-3-{[(5R)-5-methyl-5,6,7,8-tetrahydroquinolin-4-yl]oxy}propyl]-2′,3′-dihydrospiro[cyclohexane-1,1′-indene]-4-carboxylic acid] | 0.0213 | – | Cleaved PARP (fold to control) ([3]; 30 mpk): 1.2 fold to control; Cleaved PARP (fold to control) ([3]; 60 mpk): 6.5 fold to control; Cleaved PARP (fold to control) ([3]; 120 mpk): 6.3 fold to control |
| C[C@@H](COc1ccnc2c1[C@H](C)CCC2)C[C@H]1Cc2ccccc2[C@]12CC[C@@](Nc1cccc(Cl)c1)(C(=O)O)CC2 [Example 653, (1r,2′S,4S)-4-(3-chloroanilino)-2′-[(2R)-2-methyl-3-{[(5R)-5-methyl-5,6,7,8-tetrahydroquinolin-4-yl]oxy}propyl]-2′,3′-dihydrospiro[cyclohexane-1,1′-indene]-4-carboxylic acid] | 0.282 | 113 | – |
| CCC1Oc2cc3c(cc2O1)[C@]1(CC[C@@](Nc2cccc(Cl)c2)(C(=O)O)CC1)[C@@H](C[C@@H](C)COc1ccnc2c1[C@H](C)CCC2)C3 (single isomer, unassigned) [Example 967] | 0.0263 | 137 | – |
| C[C@@H](COc1ccnc2c1[C@H](C)CCC2)C[C@H]1Cc2cc3c(cc2[C@]12CC[C@@](Nc1cccc(Cl)c1)(C(=O)O)CC2)OC[C@@H](C)O3 [Example 974, (1r,2′R,4S,7′S)-4-(3-chloroanilino)-2′-methyl-7′-[(2R)-2-methyl-3-{[(5R)-5-methyl-5,6,7,8-tetrahydroquinolin-4-yl]oxy}propyl]-2′,3′,7′,8′-tetrahydrospiro[cyclohexane-1,6′-indeno[5,6-b][1,4]dioxine]-4-carboxylic acid] | 0.023 | 60.4 | – |
| COCCOCCOC(=O)[C@]1(Nc2cccc(Cl)c2)CC[C@@]2(CC1)c1cc3c(cc1C[C@@H]2C[C@@H](C)COc1ccnc2c1[C@H](C)CCC2)OCO3 [Example 933, 2-(2-methoxyethoxy)ethyl (1r,4S,6′S)-4-(3-chloroanilino)-6′-[(2R)-2-methyl-3-{[(5R)-5-methyl-5,6,7,8-tetrahydroquinolin-4-yl]oxy}propyl]-6′,7′-dihydro-2′H-spiro[cyclohexane-1,5′-indeno[5,6-d][1,3]dioxole]-4-carboxylate] | 303 | 18900 | – |
| Cc1ccc2c(c1)CN(C[C@@H](C)COc1ccnc3c1[C@H](C)CCC3)[C@]21CC[C@](Nc2cccc(Cl)c2C)(C(=O)O)CC1 [Example 53, (1s,4S)-4-(3-chloro-2-methylanilino)-5′-methyl-2′-[(2R)-2-methyl-3-{[(5R)-5-methyl-5,6,7,8-tetrahydroquinolin-4-yl]oxy}propyl]-2′,3′-dihydrospiro[cyclohexane-1,1′-isoindole]-4-carboxylic acid] | – | 451 | Ki ([1]; Ki determined from IC50): 1.5 nM |
| C[C@@H](COc1ccnc2c1[C@H](C)CCC2)CN1Cc2cc3c(cc2[C@]12CC[C@@](Nc1cccc(Cl)c1)(C(=O)O)CC2)OCO3 [Example 44, (1s,4S)-4-(3-chloroanilino)-6′-[(2R)-2-methyl-3-{[(5R)-5-methyl-5,6,7,8-tetrahydroquinolin-4-yl]oxy}propyl]-6′,7′-dihydro-2′H-spiro[cyclohexane-1,5′-[1,3]dioxolo[4,5-f]isoindole]-4-carboxylic acid] | – | 53.4 | Ki ([1]; Ki determined from IC50): 0.126 nM; Cleaved PARP (fold to control) ([3]; 30 mpk): 0.7 fold to control; Cleaved PARP (fold to control) ([3]; 60 mpk): 0.7 fold to control; Cleaved PARP (fold to control) ([3]; 120 mpk): 1.4 fold to control |
| CC1Oc2cc3c(cc2O1)[C@]1(CC[C@@](Nc2cccc(Cl)c2)(C(=O)O)CC1)[C@@H](C[C@@H](C)COc1ccnc2c1[C@H](C)CCC2)C3 (single isomer, unassigned) [Example 966] | 0.0267 | – | IC50 [2]: 48.3 nM |
| CCN(CC)C(=O)OC(C)OC(=O)[C@]1(Nc2cccc(Cl)c2)CC[C@@]2(CC1)c1cc3c(cc1C[C@@H]2C[C@@H](C)COc1ccnc2c1[C@H](C)CCC2)OCO3 (stereo partly drawn) [Example 949, 1-[(diethylcarbamoyl)oxy]ethyl (1r,4S,6′S)-4-(3-chloroanilino)-6′-[(2R)-2-methyl-3-{[(5R)-5-methyl-5,6,7,8-tetrahydroquinolin-4-yl]oxy}propyl]-6′,7′-dihydro-2′H-spiro[cyclohexane-1,5′-indeno[5,6-d][1,3]dioxole]-4-carboxylate] | – | > 30000 | inhibition at 1 µM [1]: 13.6% |
| COCCCOc1cc2c(cc1Cl)C[C@H](C[C@@H](C)COc1ccnc3c1[C@H](C)CCC3)[C@]21CC[C@](Nc2cccc(Cl)c2)(C(=O)O)CC1 [Example 823, (1r,2′S,4S)-5′-chloro-4-(3-chloroanilino)-6′-(3-methoxypropoxy)-2′-[(2R)-2-methyl-3-{[(5R)-5-methyl-5,6,7,8-tetrahydroquinolin-4-yl]oxy}propyl]-2′,3′-dihydrospiro[cyclohexane-1,1′-indene]-4-carboxylic acid] | 0.108 | 128 | – |
| CCN(CC)C(=O)OCOC(=O)[C@]1(Nc2cccc(Cl)c2)CC[C@@]2(CC1)c1cc3c(cc1C[C@@H]2C[C@@H](C)COc1ccnc2c1[C@H](C)CCC2)OCO3 [Example 950, [(diethylcarbamoyl)oxy]methyl (1r,4S,6′S)-4-(3-chloroanilino)-6′-[(2R)-2-methyl-3-{[(5R)-5-methyl-5,6,7,8-tetrahydroquinolin-4-yl]oxy}propyl]-6′,7′-dihydro-2′H-spiro[cyclohexane-1,5′-indeno[5,6-d][1,3]dioxole]-4-carboxylate] | – | > 30000 | inhibition at 1 µM [1]: 7.1% |
